Test results: ChEMBL document CHEMBL4308841, “Synthesis, in vitro antiproliferative activity, and kinase inhibitory effects of pyrazole-containing diarylureas and diarylamides” (Eur J Med Chem, 2018)

Experiments:
[1] = tested on: A498; assay: Growth inhibition of human A498 cells assessed as cell growth at 0.1 uM incubated for 48 hrs by sulforhodamine B assay relative to control; type: functional; details: A498, 48 h, read-out: Activity
[2] = tested on: RPMI-8226; assay: Growth inhibition of human RPMI8226 cells incubated for 48 hrs by sulforhodamine B assay; type: functional, cell-based; details: RPMI-8226, 48 h
[3] = tested on: HCC 2998; assay: Growth inhibition of human HCC2998 cells assessed as cell growth at 0.1 uM incubated for 48 hrs by sulforhodamine B assay relative to control; type: functional; details: HCC 2998, 48 h, read-out: Activity
[4] = tested on: SK-OV-3; assay: Growth inhibition of human SKOV3 cells assessed as cell growth at 0.1 uM incubated for 48 hrs by sulforhodamine B assay relative to control; type: functional; details: SK-OV-3, 48 h, read-out: Activity
[5] = tested on: HT-29; assay: Growth inhibition of human HT-29 cells assessed as cell growth at 100 uM incubated for 48 hrs by sulforhodamine B assay relative to control; type: functional; details: HT-29, 48 h, read-out: Activity
[6] = tested on: HT-29; assay: Growth inhibition of human HT-29 cells assessed as cell growth at 10 uM incubated for 48 hrs by sulforhodamine B assay relative to control; type: functional; details: HT-29, 48 h, read-out: Activity
[7] = tested on: PC-3; assay: Growth inhibition of human PC3 cells assessed as cell growth at 100 uM incubated for 48 hrs by sulforhodamine B assay relative to control; type: functional; details: PC-3, 48 h, read-out: Activity
[8] = tested on: 786-0; assay: Growth inhibition of human 786-0 cells assessed as cell growth at 1 uM incubated for 48 hrs by sulforhodamine B assay relative to control; type: functional; details: 786-0, 48 h, read-out: Activity
[9] = tested on: NCI/ADR-RES; assay: Growth inhibition of human NCI/ADR-RES cells assessed as cell growth at 100 uM incubated for 48 hrs by sulforhodamine B assay relative to control; type: functional; details: read-out: Activity
[10] = tested on: 786-0; assay: Growth inhibition of human 786-0 cells assessed as cell growth at 0.01 uM incubated for 48 hrs by sulforhodamine B assay relative to control; type: functional; details: 786-0, 48 h, read-out: Activity
[11] = tested on: SN12C; assay: Growth inhibition of human SN12C cells incubated for 48 hrs by sulforhodamine B assay; type: functional, cell-based
[12] = tested on: LOX IMVI; assay: Growth inhibition of human LOXIMVI cells assessed as cell growth at 0.1 uM incubated for 48 hrs by sulforhodamine B assay relative to control; type: functional; details: read-out: Activity
[13] = tested on: UACC-62; assay: Growth inhibition of human UACC62 cells incubated for 48 hrs by sulforhodamine B assay; type: functional, cell-based; details: UACC-62, 48 h
[14] = tested on: Malme-3M; assay: Growth inhibition of human MALME-3M cells assessed as cell growth at 1 uM incubated for 48 hrs by sulforhodamine B assay relative to control; type: functional; details: read-out: Activity
[15] = tested on: SF-295; assay: Growth inhibition of human SF295 cells assessed as cell growth at 0.1 uM incubated for 48 hrs by sulforhodamine B assay relative to control; type: functional; details: SF-295, 48 h, read-out: Activity
[16] = tested on: COLO 205; assay: Growth inhibition of human COLO205 cells assessed as cell growth at 100 uM incubated for 48 hrs by sulforhodamine B assay relative to control; type: functional; details: COLO 205, 48 h, read-out: Activity
[17] = tested on: SK-MEL-5; assay: Growth inhibition of human SK-MEL-5 cells assessed as cell growth at 1 uM incubated for 48 hrs by sulforhodamine B assay relative to control; type: functional; details: SK-MEL-5, 48 h, read-out: Activity
[18] = tested on: HCC 2998; assay: Growth inhibition of human HCC2998 cells incubated for 48 hrs by sulforhodamine B assay; type: functional, cell-based; details: HCC 2998, 48 h
[19] = tested on: ACHN; assay: Growth inhibition of human ACHN cells assessed as cell growth at 100 uM incubated for 48 hrs by sulforhodamine B assay relative to control; type: functional; details: read-out: Activity
[20] = tested on: SW-620; assay: Growth inhibition of human SW620 cells assessed as cell growth at 100 uM incubated for 48 hrs by sulforhodamine B assay relative to control; type: functional; details: SW-620, 48 h, read-out: Activity
[21] = tested on: SNB-75; assay: Growth inhibition of human SNB75 cells assessed as cell growth at 0.01 uM incubated for 48 hrs by sulforhodamine B assay relative to control; type: functional; details: SNB-75, 48 h, read-out: Activity
[22] = tested on: 786-0; assay: Growth inhibition of human 786-0 cells assessed as cell growth at 100 uM incubated for 48 hrs by sulforhodamine B assay relative to control; type: functional; details: 786-0, 48 h, read-out: Activity
[23] = tested on: U-251; assay: Growth inhibition of human U251 cells incubated for 48 hrs by sulforhodamine B assay; type: functional, cell-based; details: U-251, 48 h
[24] = tested on: NCI-H23; assay: Growth inhibition of human NCI-H23 cells assessed as cell growth at 0.1 uM incubated for 48 hrs by sulforhodamine B assay relative to control; type: functional; details: NCI-H23, 48 h, read-out: Activity
[25] = tested on: NCI-H522; assay: Growth inhibition of human NCI-H522 cells incubated for 48 hrs by sulforhodamine B assay; type: functional, cell-based; details: NCI-H522, 48 h
[26] = tested on: HCT-15; assay: Growth inhibition of human HCT15 cells incubated for 48 hrs by sulforhodamine B assay; type: functional, cell-based; details: HCT-15, 48 h
[27] = tested on: SF-268; assay: Growth inhibition of human SF268 cells incubated for 48 hrs by sulforhodamine B assay; type: functional, cell-based; details: SF-268, 48 h
[28] = tested on: UACC-257; assay: Growth inhibition of human UACC257 cells assessed as cell growth at 100 uM incubated for 48 hrs by sulforhodamine B assay relative to control; type: functional; details: UACC-257, 48 h, read-out: Activity
[29] = read-out: LC50 (the source's name)
[30] = read-out: pLC50 (the source's name) (converted)

O=C(Nc1cccc(-n2cc(-c3ccncc3)c(-c3cc(O)cc(Cl)c3)n2)c1)c1ccc(N2CCOCC2)c(C(F)(F)F)c1
growth at 0.1 µM [1]: 85%
IC50 [2]: 0.4 µM
GI50 ([2]; read-out: GI50): 0.396 µM
CC50 [2, 29]: > 100 µM
TGI ([2]; read-out: TGI): 23.1 µM
GI50 ([2]; read-out: pGI50 (converted)): 0.398 µM
CC50 [2, 30]: > 100 µM
TGI ([2]; read-out: pTGI (converted)): 2.29 µM
growth at 0.1 µM [3]: 100%
growth at 0.1 µM [4]: 102%
growth at 100 µM [5]: -41%
growth at 10 µM [6]: 16.9%
growth at 100 µM [7]: -8%
growth at 1 µM [8]: 77%
growth at 100 µM [9]: 25%
growth at 0.01 µM [10]: 102%
GI50 ([11]; read-out: GI50): 6.37 µM
LC50 ([11]; read-out: LC50): > 100 µM
TGI ([11]; read-out: TGI): > 100 µM
GI50 ([11]; read-out: pGI50 (converted)): 6.31 µM
LC50 ([11]; read-out: pLC50 (converted)): > 100 µM
TGI ([11]; read-out: pTGI (converted)): > 100 µM
growth at 0.1 µM [12]: 102%
IC50 [13]: 1.72 µM
GI50 ([13]; read-out: GI50): 1.72 µM
CC50 [13, 29]: > 100 µM
TGI ([13]; read-out: TGI): 93.8 µM
GI50 ([13]; read-out: pGI50 (converted)): 1.74 µM
CC50 [13, 30]: > 100 µM
TGI ([13]; read-out: pTGI (converted)): 9.33 µM
growth at 1 µM [14]: 52%
growth at 0.1 µM [15]: 90%
growth at 100 µM [16]: -17%
growth at 1 µM [17]: 52%
GI50 ([18]; read-out: GI50): 1.52 µM
CC50 [18, 29]: > 100 µM
TGI ([18]; read-out: TGI): 79.5 µM
GI50 ([18]; read-out: pGI50 (converted)): 1.82 µM
CC50 [18, 30]: > 100 µM
TGI ([18]; read-out: pTGI (converted)): 7.94 µM
growth at 100 µM [19]: -20%
growth at 100 µM [20]: -19%
growth at 0.01 µM [21]: 57%
growth at 100 µM [22]: -82%
IC50 [23]: 1.4 µM
GI50 ([23]; read-out: GI50): 1.43 µM
CC50 [23, 29]: 44 µM
TGI ([23]; read-out: TGI): 6.3 µM
GI50 ([23]; read-out: pGI50 (converted)): 1.41 µM
CC50 [23, 30]: 43.7 µM
TGI ([23]; read-out: pTGI (converted)): 6.31 µM
growth at 0.1 µM [24]: 104%
GI50 ([25]; read-out: GI50): 0.934 µM
CC50 [25, 29]: > 100 µM
TGI ([25]; read-out: TGI): 12.1 µM
GI50 ([25]; read-out: pGI50 (converted)): 0.933 µM
CC50 [25, 30]: > 100 µM
TGI ([25]; read-out: pTGI (converted)): 12 µM
GI50 ([26]; read-out: GI50): 0.559 µM
CC50 [26, 29]: 84.9 µM
TGI ([26]; read-out: TGI): 11.3 µM
GI50 ([26]; read-out: pGI50 (converted)): 0.562 µM
CC50 [26, 30]: 85.1 µM
TGI ([26]; read-out: pTGI (converted)): 11.2 µM
GI50 ([27]; read-out: GI50): 5.51 µM
CC50 [27, 29]: > 100 µM
TGI ([27]; read-out: TGI): > 100 µM
GI50 ([27]; read-out: pGI50 (converted)): 8.51 µM
CC50 [27, 30]: > 100 µM
TGI ([27]; read-out: pTGI (converted)): > 100 µM
growth at 100 µM [28]: -27%
